Test results taken from ChEMBL document CHEMBL4725322, “New 30-norlupane derivatives through chemical-microbial semi-synthesis of betulinic acid and their neuroprotective effect” (Bioorg Med Chem Lett, 2020).

Legend:
PC-12 [1] = test: Neuroprotective activity against CoCl2-induced neuronal injury in rat PC-12 cells assessed as increase in cell viability; assay type: functional, cell-based
PC-12 [2] = test: Neuroprotective activity against CoCl2-induced neuronal injury in rat PC-12 cells assessed as cell viability at 30 uM relative to control; assay type: functional; conditions: read-out: Activity
[3] = Rattus norvegicus, PC-12, read-out: EC50

CC(=O)[C@@H]1CC[C@]2(C(=O)O)CC[C@]3(C)[C@H](C[C@@H](O)[C@@H]4[C@@]5(C)CCC(=O)C(C)(C)[C@@H]5C[C@H](O)[C@]43C)[C@@H]12 was tested, and the EC50 (PC-12 [1]; pc-12) was “Not Active” and the viability at 30 µM (PC-12 [2]) was 105%.

With CC(=O)[C@@H]1CC[C@]2(C(=O)O)CC[C@]3(C)[C@H](CC[C@@H]4[C@@]5(C)CC[C@H](O)[C@@](C)(CO)[C@@H]5C[C@H](O)[C@]43C)[C@@H]12 the EC50 (PC-12 [1]; pc-12) was “Not Active” and the viability at 30 µM (PC-12 [2]) was 110%.

For CC(=O)[C@@H]1CC[C@]2(C(=O)O)CC[C@]3(C)[C@H](CC[C@@H]4[C@@]5(C)CC[C@H](O)C(C)(C)[C@@H]5C[C@H](O)[C@]43C)[C@@H]12, the EC50 (PC-12 [1]; pc-12) was “Not Active” and the viability at 30 µM (PC-12 [2]) was 105%.

CC(=O)[C@@H]1CC[C@]2(C(=O)O)CC[C@]3(C)[C@H](CC[C@@H]4[C@@]5(C)CCC(=O)C(C)(C)[C@@H]5C[C@H](O)[C@]43C)[C@@H]12 was tested, and the EC50 (PC-12 [1]; pc-12) was “Not Active” and the viability at 30 µM (PC-12 [2]) was 96%.

With CC(=O)[C@@H]1CC[C@]2(C(=O)O)C[C@H](O)[C@]3(C)[C@H](CC[C@@H]4[C@@]5(C)CC[C@H](O)C(C)(C)[C@@H]5C[C@H](O)[C@]43C)[C@@H]12 the EC50 (PC-12 [1]; pc-12) was “Not Active” and the viability at 30 µM (PC-12 [2]) was 99.4%.

For CC(=O)[C@@H]1CC[C@]2(C(=O)O)CC[C@]3(C)[C@H](C[C@@H](O)[C@@H]4[C@@]5(C)CCC(=O)C(C)(C)[C@@H]5CC[C@]43C)[C@@H]12, the EC50 (PC-12 [1]; [3]) was 10 nM and the viability at 30 µM (PC-12 [2]) was 102%.

For CC(=O)[C@@H]1CC[C@]2(C(=O)O)C[C@H](O)[C@]3(C)[C@H](CC[C@@H]4[C@@]5(C)CCC(=O)C(C)(C)[C@@H]5C[C@H](O)[C@]43C)[C@@H]12, the EC50 (PC-12 [1]; pc-12) was “Not Active” and the viability at 30 µM (PC-12 [2]) was 104%.

With CC(=O)[C@@H]1CC[C@]2(C(=O)O)CC[C@]3(C)[C@H](CC[C@@H]4[C@@]5(C)CC[C@H](O)C(C)(C)[C@@H]5CC[C@]43C)[C@@H]12 [PLATANIC ACID] the EC50 (PC-12 [1]; [3]) was 170 nM and the viability at 30 µM (PC-12 [2]) was 96.8%.

OC[C@H]1O[C@@H](OCCc2ccc(O)cc2)[C@H](O)[C@@H](O)[C@@H]1O [SALIDROSIDE] was tested, and the viability at 30 µM (PC-12 [2]) was 99.2%.
